Source: patent US9504701B2, “Methods for treating viral infections using hydrogen sulfide donors” (THE BOARD OF REGENTS OF THE UNIVERSITY OF TEXAS SYSTEM, priority 2014, dated 2016)

How the values were obtained:
[1] = test system: A549 cells infected with RSV; format: cell-based, human
[2] = test system: RSV; test: RSV replication in A549 cells, viral titers by plaque assay; format: cell-based, RSV Long strain; details: PAG 20 or 40 mM, 24 h p.i.
[3] = test system: uninfected cells

C#CCC(N)C(=O)O (racemic) [PAG, DL-propargylglycin]
levels of production of several cytokines and chemokines in response to RSV infection [1]: significantly increased | increase in viral infectious-particle formation (plaque assay) [2]: 3- to 4 fold | basal cellular mediator secretion [3]: no effect | uninfected-cell viability (trypan blue exclusion) [3]: no effect
